Assay results as given in patent US20240100023A1, “Compositions and Methods For Treating Spinal Cord Injuries” (priority 2020, published 2024).
Entries after “also recorded” stand apart in the source; their conditions may differ.

Assays:
hippocampal slices = conditions: male, Sprague-Dawley, rat
[1] = test system: adult patients with Attention-Deficit Hyperactive Disorder (ADHD); experiment: Phase 2 randomized, double-blind, 2-period crossover study in adult ADHD; type: in vivo, human; conditions: for ADHD-RS hyperactivity subscale mean score: ITT
Description: *This phase 2 study evaluated the efficacy, tolerability and safety of CX717 in the treatment of adult patients with Attention-Deficit Hyperactive Disorder (ADHD). The study was designed and executed as a randomized, double-blind, multi-center, 2-period crossover study comparing 2 doses of CX717 (200 mg, or 800 mg, BID) with placebo. Each treatment period lasted 3 weeks with a 2-week washout in between. Subjects met DSM-IV criteria for adult ADHD and had moderate to severe symptoms. The primary efficacy measure was the change from baseline on the ADHD Rating Scale (ADHD-RS) with adult ADHD prompts. A total of 68 male subjects, who were 19 to 50 years old and met criteria of Adult ADHD as defined by DSM IV, were randomized After accounting for early study dropouts, 51 subjects (75%) returned for efficacy assessments and completed both treatment periods (intent-to-treat population). […] Treatment with CX717 was well tolerated with no clinically significant changes in cardiovascular and other safety parameters with either dose. Sleep disturbances and headache were the most frequently reported adverse events.
The present study further examined the clinical efficacy, tolerability and safety of CX717 as a drug treatment for adults with ADHD. Eligible subjects were randomized to 1 of 4 possible treatment sequences in which they received placebo (P) and either high dose (H) or low dose (L) of active treatment in random order (PL, PH, LP, and HP). Each treatment period was 3 weeks in duration with a 2-week washout in between. The study design was modeled after several similarly published ADHD studies with atomoxetine and stimulants, with sample sizes in the mid-20s. Since this is the first such study with CX7171 in ADHD, it is assumed that efficacy would be achieved using historical assumptions in effect size, therefore, a total of 60 subjects were to be randomized.
All patients met DSM-IV criteria for adult ADHD, established by the Adult ADHD Clinical Diagnostic Scale (ACDS) Version 1.2. All patients gave written informed consent prior to enrollment and the conduct of the study was approved by either the […] Review Board (IRB) at each site or by the central IRB. Each subject had at least moderately severe ADHD symptoms (ADHD-RS score of ≥22; Clinician's Global Impression of Severity [CGI-S] score of ≥4). Each subject was male, and between 18-50 years old, inclusively. Male patients were selected because the necessary reproductive toxicology studies that would have allowed women of childbearing potential to be included in the study had not been completed.
Subjects were excluded if they were taking medication specifically for treatment of ADHD symptoms (e.g., stimulants, atomoxetine, tricyclic antidepressants, or bupropion). ADHD treatments were discontinued (stimulants for 2 weeks and non-stimulant for 4 weeks) prior to the Period 1 baseline visit. Subjects were also excluded if they were taking antidepressants, anticonvulsants, or antipsychotics.
CX717 capsules were administered orally as 200 mg BID or 800 mg BID doses. Matching placebo capsules were identical in appearance to the capsules containing active drug, and were administered orally. The study was divided into a series of periods: screening period—up to 4 weeks, treatment period 1-3 weeks; wash-out period—2 weeks; treatment period 2-3 weeks; follow-up period—approximately 1 week.
ADHD recovery drug efficacy was assessed using the Adult ADHD Rating Scale (DuPaul, 1998) with prompts ([…]) (Adler & Cohen, 2004). The primary efficacy outcome measure was the comparison of each dose of CX717 versus placebo on the change from baseline in ADHD symptoms as measured by the ADHD-RS at Week 3. Secondary efficacy parameters included comparisons of each dose of CX717 versus placebo for the ADHD-RS Inattentiveness Subscale Score of the ADHD-RS.
Safety was evaluated by adverse events (AEs), clinical laboratory tests, vital signs, physical examination, and electrocardiograms (ECGs). […]

Rat (Lister) = experiment: 5 Choice serial reaction time task; type: in vivo; conditions: IP
Description: Another useful animal model for evaluating ampakine activity is the Five Choice Serial Reaction Time Task in Rats. This assay requires rats to provide a single nose poke in response to a light stimulus presented in one of five locations within a 9-hole chamber. With a correct response a reward is delivered that the rat collects from the food magazine at the rear of the chamber. The withdrawal of its head from the food magazine initiates a short inter-trial interval followed by the presentation of the next randomly presented stimulus. An incorrect response results in a time out period (non-reinforcement) followed by the initiation of a new trial. Groups of 12 rats were used in this study, and all rats received all treatments using a randomized sequence. For evaluation using this model, CX1739 was selected as the exemplary low impact ampakine, administered at doses of 3 and 10 mg/kg i.p. 20 min prior to the start of the study.

[2] = high dose (800 mg BID), after 3 weeks

Row | Compound | Concentration at which seizure activity is seen in hippocampal slices (hippocampal slices) | ADHD-RS outcome measures, low dose versus placebo ([1]; 200 mg BID) | ADHD-RS total and subscales, high dose versus placebo, repeated measures analysis ([1]; 800 mg BID, at endpoint) | ADHD-RS hyperactivity subscale mean score ([1]; active dose (both doses), last value) | Difference from placebo in mean change of ADHD-RS total score [1, 2] | Mean change from baseline of ADHD-RS total score [1, 2] | ADHD-RS hyperactivity subscale mean score ([1]; high dose, Week 1) | ADHD-RS hyperactivity subscale mean score ([1]; high dose, Week 3) | ADHD-RS hyperactivity subscale mean score ([1]; high dose, last value) | Minimum Effective Dose, 5 choice serial reaction time task (Rat (Lister))
1 | O=C(c1ccc2nonc2c1)N1CCOCC1 [CX717, 1-(benzofurazan-5-ylcarbonyl)morpholine] | > 600 µM | no statistically significant differences; also recorded: did not differ from placebo | superior efficacy compared to placebo | −4.10 | −4.73 | −9.95 | −4.22 | −5.68 | −5.57 | 
2 | CN(C(=O)c1ccc2nonc2c1)C1CCOCC1 [CX1739, N-Methyl-N-tetrahydro-2H-pyran-4-yl-[2,1,3]-benzoxadiazole-5-carboxamide] |  |  |  |  |  |  |  |  |  | 3 mg/kg
